Measurements from publication PMC2755957 (The Journal of Biological Chemistry, 2009).
Where a chain is given by its changes, count along the chain named.

Columns and labels:
[1] = molecular target: T1, Δ^1–24-C65A + W54A (Mus musculus, UniProt O09114, C65A/W54A); assay: biochemical
T1 sequence (O09114 1-189 W54A/C65A): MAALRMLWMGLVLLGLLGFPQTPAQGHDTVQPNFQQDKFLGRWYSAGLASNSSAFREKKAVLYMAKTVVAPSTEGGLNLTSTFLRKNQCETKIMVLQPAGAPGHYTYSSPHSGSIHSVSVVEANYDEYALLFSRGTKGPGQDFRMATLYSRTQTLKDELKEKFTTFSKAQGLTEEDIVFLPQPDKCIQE

[2] = molecular target: T2, Δ^1–24-L-PGDS + T67A/S81A (Mus musculus, UniProt O09114, S81A/T67A); assay: biochemical
T2 sequence (O09114 1-189 T67A/S81A): T1 sequence (O09114 1-189 W54A/C65A) with A54W, A65C, T67A, S81A

[3] = molecular target: T3, mouse Δ1–24-L-PGDS (lipocalin type prostaglandin D synthase) (Mus musculus, UniProt O09114); assay: surface plasmon resonance; assay type: binding
T3 sequence (O09114 25-189): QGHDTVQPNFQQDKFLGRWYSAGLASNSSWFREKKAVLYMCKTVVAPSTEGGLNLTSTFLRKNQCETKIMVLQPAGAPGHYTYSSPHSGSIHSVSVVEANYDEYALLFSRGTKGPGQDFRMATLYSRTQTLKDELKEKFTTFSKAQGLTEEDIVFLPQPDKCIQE

[4] = molecular target: T4, mouse Δ1–24-L-PGDS (lipocalin type prostaglandin D synthase) (Mus musculus, UniProt O09114, T67A); assay: surface plasmon resonance; assay type: binding
T4 sequence (O09114 25-189 T67A): T3 sequence (O09114 25-189) with T43A

[5] = molecular target: T3, mouse Δ1–24-L-PGDS (lipocalin type prostaglandin D synthase); assay: PGDS assay, [[…]-14C]PGH2 to [[…]-14C]PGD2 by TLC; assay type: biochemical
[6] = molecular target: T5, mouse Δ1–24-L-PGDS (lipocalin type prostaglandin D synthase) (Mus musculus, UniProt O09114, C65A); assay: surface plasmon resonance; assay type: binding
T5 sequence (O09114 25-189 C65A): T3 sequence (O09114 25-189) with C41A

[7] = molecular target: T6, mouse Δ1–24-L-PGDS (lipocalin type prostaglandin D synthase) (Mus musculus, UniProt O09114, S81A); assay: surface plasmon resonance; assay type: binding
T6 sequence (O09114 25-189 S81A): T3 sequence (O09114 25-189) with S57A

[8] = molecular target: T7, mouse Δ1–24-L-PGDS (lipocalin type prostaglandin D synthase) (Mus musculus, UniProt O09114, W54A); assay: surface plasmon resonance; assay type: binding
T7 sequence (O09114 25-189 W54A): T3 sequence (O09114 25-189) with W30A

[9] = molecular target: T8, mouse Δ1–24-L-PGDS (lipocalin type prostaglandin D synthase) (Mus musculus, UniProt O09114, H111A/W54A); assay: surface plasmon resonance; assay type: binding
T8 sequence (O09114 25-189 W54A/H111A): T3 sequence (O09114 25-189) with W30A, H87A

[10] = molecular target: T9, mouse Δ1–24-L-PGDS (lipocalin type prostaglandin D synthase) (Mus musculus, UniProt O09114, S45A/S81A/T67A); assay: surface plasmon resonance; assay type: binding
T9 sequence (O09114 25-189 S45A/T67A/S81A): T3 sequence (O09114 25-189) with S21A, T43A, S57A

[11] = molecular target: T10, mouse Δ1–24-L-PGDS (lipocalin type prostaglandin D synthase) (Mus musculus, UniProt O09114, S45A); assay: surface plasmon resonance; assay type: binding
T10 sequence (O09114 25-189 S45A): T3 sequence (O09114 25-189) with S21A

[12] = molecular target: T11, Δ^1–24-C65A + H111A (Mus musculus, UniProt O09114, C65A/H111A); assay: biochemical
T11 sequence (O09114 1-189 C65A/H111A): T1 sequence (O09114 1-189 W54A/C65A) with A54W, H111A

| Structure (SMILES) | Kd [1] [µM] | Kd [2] [µM] | Kd [3] [µM] | Kd [4] [µM] | Ki [5] [µM] | Kd [6] [µM] | Kd [7] [µM] | Kd [8] [µM] | Kd [9] [µM] | Kd [10] [µM] | Kd [11] [µM] | Kd [12] [µM] |
| --- | --- | --- | --- | --- | --- | --- | --- | --- | --- | --- | --- | --- |
| CCCCC[C@H](O)/C=C/[C@H]1[C@@H]2CO[C@@H](C2)[C@@H]1C/C=C\CCCC(=O)O [U-44069] | 49.2 ± 3.7 | 13.5 ± 2.3 | 17.5 ± 1.2 | 12.3 ± 3 | 30 | 20.2 ± 2.5 | 14.6 ± 2.4 | 20.3 ± 1.9 | 20.6 ± 1.4 | 12.9 ± 2.4 | 15.2 ± 2.4 | 38.1 ± 2.4 |
| CCCCC[C@H](O)/C=C/[C@@H]1[C@@H](C/C=C\CCCC(=O)O)[C@H]2CO[C@@H]1C2 [U-46619] | 42.4 ± 3.4 | 19.6 ± 2.3 | 22.8 ± 1.6 | 26.9 ± 5.3 | 36 | 22.1 ± 1.5 | 17 ± 1.7 | 44 ± 3.9 | 48.5 ± 4.4 | 22 ± 2 | 16.2 ± 1.4 | 37.2 ± 3.5 |
